# Experimental data reported in PubChem BioAssay AID1259321 (Sanford-Burnham Center for Chemical Genomics, 2017).
# Active and inactive are the calls of the source.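 The calls were made as follows: active = half-maximal concentration for changing protein binding to DNA, from the fitted dose curve, below 10 micromolar; inactive = the rest.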
# Target: Nuclear receptor subfamily 1 group D member 1 (Homo sapiens) (UniProt P20393)
# Assay: modulators of Rev-erb alpha DNA binding, dose response, biochemical, FITC-DNA, fluorescence polarization (AID 1259321)
# Chain of Nuclear receptor subfamily 1 group D member 1 (Homo sapiens) (P20393 whole entry, looked up): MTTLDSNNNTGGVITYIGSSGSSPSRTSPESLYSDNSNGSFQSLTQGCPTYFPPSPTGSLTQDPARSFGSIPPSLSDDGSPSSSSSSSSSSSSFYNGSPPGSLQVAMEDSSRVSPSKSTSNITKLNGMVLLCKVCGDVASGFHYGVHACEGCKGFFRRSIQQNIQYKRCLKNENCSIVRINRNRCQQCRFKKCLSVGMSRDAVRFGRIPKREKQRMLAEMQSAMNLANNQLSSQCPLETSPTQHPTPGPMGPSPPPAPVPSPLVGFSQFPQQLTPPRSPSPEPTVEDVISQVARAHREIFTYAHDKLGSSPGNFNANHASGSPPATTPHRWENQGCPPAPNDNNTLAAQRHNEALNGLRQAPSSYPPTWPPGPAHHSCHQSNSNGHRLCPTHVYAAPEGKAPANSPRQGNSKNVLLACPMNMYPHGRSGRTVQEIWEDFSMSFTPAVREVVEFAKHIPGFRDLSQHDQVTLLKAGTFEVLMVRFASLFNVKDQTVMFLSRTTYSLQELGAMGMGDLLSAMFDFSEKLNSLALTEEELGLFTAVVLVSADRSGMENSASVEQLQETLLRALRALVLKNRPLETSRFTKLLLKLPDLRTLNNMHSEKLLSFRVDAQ
row,Structure (SMILES),IC50
1,COc1ccc(-c2ccc3c(c2)c(Sc2ccccc2)c(-c2cc(OC)cc(OC)c2)n3C)cc1,6.89 µM
2,Cc1ccc(C)c(Nc2nc3c(S(=O)(=O)c4ccccc4)nnn3c3ccccc23)c1,8.48 µM
3,COCCCn1c(C(=O)NCCC2=CCCCC2)cc2c(=O)n3cccc(C)c3nc21,7.78 µM
4,O=C(NCc1ccccc1)C(c1cccc2ccccc12)n1c(=O)c(-c2ccccc2)nc2ccccc21 (configuration not stated),1.61 µM
5,Cc1cccc2cc(C#N)c(NCCNC(=O)NC3CCCCC3)nc12,inactive
6,Cn1cncc1C#Cc1ccc2cc(C3(O)CCCCC3)oc(=O)c2c1,inactive
7,CN(C)c1ccc(/C=C/c2cc[n+](C)cc2)cc1,3.47 µM
8,CN1C(=O)c2cc(NC(=O)Nc3ccccc3F)ccc2OC[C@H]2O[C@@H](CC(=O)NCc3ccc(-c4ccccc4)cc3)CC[C@@H]21,3.55 µM
9,CSc1nc(N)c(C#N)c(-c2ccc(Cl)cc2)c1C#N,4.85 µM
10,O=[N+]([O-])c1ccc2c(c1)Cc1cc(F)ccc1-2,9.46 µM
11,Cc1oc2cc3oc(=O)c4c(c3cc2c1C)CCC4,> 40 µM (inactive)
12,CCN(CC)c1ccc(/C=C/c2cccc[n+]2C)c(OC)c1,7.32 µM
13,Cc1cc(NC(=O)CSc2nc3cc(C)c(C)cc3cc2C)no1,> 40 µM (inactive)
14,CCOC(=O)c1c(C2CC2)csc1NC(=O)COC(=O)c1cnc(Cl)c(Cl)c1,inactive
15,C=CCn1c(C)c(/C=C/c2cc[n+](C)cc2)c2ccccc21,9.96 µM
16,CCCCNc1ccc2c3c(cccc13)C(=O)N(CCCC)C2=O,2.78 µM
17,Cc1nn(C)cc1N1C(=O)c2cccc3c(N)ccc(c23)C1=O,inactive
18,Cc1nc2nc(SCC(=O)c3ccccc3)[nH]c2cc1Br,> 40 µM (inactive)
19,CCN(Cc1nc2cc(Cl)ccc2c(=O)[nH]1)C(=O)c1cc2c(s1)CCCCC2,3.21 µM
20,Oc1ccccc1N=Nc1nc(-c2ccccc2)c(-c2ccccc2)[nH]1,3.98 µM
21,CCN1C(=O)/C(=C/c2ccc(N3CCCC3)cc2)NC1=S,1.14 µM
22,CCCCCCNC(=O)C(C#N)c1nc2ccccc2nc1N1CCOCC1 (configuration not stated),> 40 µM (inactive)
23,N#Cc1c(N)nc2c3c(sc(=N)c2c1N)NC(=O)CC3c1ccccc1 (configuration not stated),> 40 µM (inactive)
24,CCn1c(=O)cc(SCC(=O)Nc2ccc(Cl)cc2)c2ccccc21,5.59 µM
25,CCN(CC)C(=O)c1ccc(/C=C/c2c[nH]c3ccccc23)[n+](C)c1,inactive
26,COc1cc2cc(C#N)c(SCC(=O)Nc3cc(C)on3)nc2cc1OC,inactive
27,Cn1c(=O)c(NCCO)c2c3c(cccc31)C(=O)c1ccccc1-2,3.63 µM
28,CN(C)C=Nc1nc2c(Br)ccc(Br)c2cc1C(=O)NCC(C)(C)C,inactive
29,CN1CCS/C1=C\C=C1/SC(=S)N(CC(=O)O)C1=O,inactive

# Results, then the compound that gave them:
row,IC50,Structure (SMILES)
1,inactive,COc1ccc(-n2c(SCC(=O)Nc3cc(C)on3)nc3c([nH]c4ccccc43)c2=O)cc1
2,inactive,CCOC(=O)CC(=O)CSc1nc(-c2ccc3c(c2)OCO3)cc(C(F)(F)F)c1C#N
3,> 40 µM (inactive),Cc1ccccc1OCC(=O)Nc1ccc2c(c1)C(=O)c1ccccc1C2=O
4,inactive,CCCCOC(=O)CSc1nc(N)c(C#N)c(-c2ccc(OCC)cc2)c1C#N
5,2.52 µM,Cc1cc(OC(C)C(=O)NCc2ccccn2)c2c(C)c(Cc3ccccc3)c(=O)oc2c1 (configuration not stated)
6,3.87 µM,O=c1c2ccccc2nc2sc(Nc3cccc(Cl)c3)nn12
7,0.933 µM,CCOC(=O)c1sc(=NC(=O)c2ccc(OC(C)C)cc2)n(C)c1C
8,> 40 µM (inactive),COC(=O)c1ccccc1-c1c2ccc(=N)cc-2oc2cc(N)ccc12
9,> 40 µM (inactive),CCN(CC)S(=O)(=O)c1ccc(C(=O)OCCN2C(=O)c3cccc4c(N5CCOCC5)ccc(c34)C2=O)cc1
10,4.57 µM,CC(=O)c1ccc(S(=O)(=O)N2CCN(c3nc4c(C)c(C)ccc4cc3C#N)CC2)cc1
11,inactive,COCCN(Cc1cc2cc(C)ccc2n2nnnc12)C(=S)Nc1ccc(C)cc1
12,> 40 µM (inactive),COc1ccc2[nH]c(C(=O)Nc3ccc(F)cc3Br)cc2c1
13,2.74 µM,CSc1ccc(CCNC(=O)c2cc(-c3ccccc3)c(N3CCOCC3)s2)cc1
14,2.6 µM,COc1ccc(-n2nc(C(=O)NCC(=O)Nc3cccc(Cl)c3)c3ccccc3c2=O)cc1OC
15,5 µM,COc1ccc(C(=O)Cn2cnc3ccc(Cl)cc3c2=O)cc1F
16,4.24 µM,Cc1onc(-c2ccccc2)c1C(=O)Nc1nc(-c2cc(F)ccc2F)cs1
17,3.44 µM,COc1ccc(CN(Cc2cc3cc(OC)c(OC)cc3[nH]c2=O)C(=O)NC2CCCCC2)cc1
18,8.16 µM,COc1ccc(CNC(=O)C2CCC(CNS(=O)(=O)c3cccc4nsnc34)CC2)cc1 (configuration not stated)
19,inactive,Cc1ccc(CNC(=O)c2cc3c(=O)n(C)c4ccccc4c3n2C)cc1
20,inactive,CCOc1ccc(-n2c([S-])c(C(=O)Nc3ccc(S(=O)(=O)N4CCOCC4)cc3)[n+]3cc(C(N)=O)ccc23)cc1
21,inactive,CCCOc1ccc(C(=O)Nc2nc(C)c(Cc3ccc4c(c3)OCO4)s2)cc1
22,6.74 µM,COc1ccc(C(=O)Nc2ccccc2C(=O)Nc2ccccc2)cc1
23,inactive,Cc1ccc(S(=O)(=O)c2nc(Nc3ccccc3C#N)sc2Cl)cc1
